This test has as its target Oxytocin receptor (Cavia porcellus). The test is described as follows: Inhibition of radioligand [3H]OT binding to oxytocin receptor (OT) in guinea pig myometrium membrane.

Here are results for 4 compounds from BindingDB's records for doi:10.1021/jm00028a008 (1994).

In general, Kd refers to the constant that tells how readily two partners part at equilibrium. Lower therefore signals a tighter complex.

`CC[C@H](C)[C@@H]1NC(=O)[C@@H](Cc2ccc(OC)cc2)NC(=O)CC2(CCCCC2)SSC[C@@H](C(=O)N(C)CC(=O)N[C@@H](CCCN=C(N)N)C(=O)NCC(N)=O)NC(=O)[C@H](CC(N)=O)NC(=O)[C@H](CCC(N)=O)NC1=O` [[Mca1,D-Tyr(OMe)2,Sar7]AVT] displayed a Kd of 0.018 µM.
For `CN(CC(=O)N[C@@H](CCCNC(=N)N)C(=O)NCC(N)=O)C(=O)[C@@H]1CSSC2(CCCCC2)CC(=O)N[C@@H](Cc2ccccc2)C(=O)N[C@@H](Cc2ccccc2)C(=O)N[C@@H](CCC(N)=O)C(=O)N[C@@H](CC(N)=O)C(=O)N1` [[Mca1,D-Phe2,Sar7]AVP] the value was 0.007 µM.
Regarding `CCOc1ccc(C[C@H]2NC(=O)CC3(CCCCC3)SSC[C@@H](C(=O)N(C)CC(=O)N[C@@H](CCCN=C(N)N)C(=O)NCC(N)=O)NC(=O)[C@H](CC(N)=O)NC(=O)[C@H](CCC(N)=O)NC(=O)[C@H](Cc3ccccc3)NC2=O)cc1` [[Mca1,D-Tyr(OEt)2,Sar7]AVP], the affinity, expressed as Kd, was 0.021 µM.
Next, `CCOc1ccc(C[C@H]2NC(=O)CC3(CCCCC3)SSC[C@@H](C(=O)N(C)CC(=O)N[C@@H](CCCN=C(N)N)C(=O)NCC(N)=O)NC(=O)[C@H](CC(N)=O)NC(=O)[C@H](CCC(N)=O)NC(=O)[C@H]([C@@H](C)CC)NC2=O)cc1` [[Mpa1,D-Tyr(OEt)2,Sar7]AVT]: 0.015 µM.
